# Measurements from ChEMBL document CHEMBL4184120, “Target ROS to induce apoptosis and cell cycle arrest by 5,7-dimethoxy-1,4-naphthoquinone derivative” (Bioorg Med Chem Lett, 2018).
# Key:
# HL-60 = assay: Antiproliferative activity against human HL60 cells after 48 hrs by MTT assay; type: functional, cell-based; settings: HL-60, 48 h
# HeLa = assay: Antiproliferative activity against human HeLa cells after 48 hrs by MTT assay; type: functional, cell-based
# HepG2 = assay: Antiproliferative activity against human HepG2 cells after 48 hrs by MTT assay; type: functional, cell-based; settings: HepG2, 48 h
# A549 = assay: Antiproliferative activity against human A549 cells after 48 hrs by MTT assay; type: functional, cell-based; settings: A549, 48 h
# NCI-H460 = assay: Antiproliferative activity against human NCI-H460 cells after 48 by hrs MTT assay; type: functional, cell-based
# [1] = Redox potential of the compound in pH 7.4 PBS buffer assessed as oxidation potential at 0.4 mM by cyclic voltametry; type: physicochemical; settings: pH 7.4, 400 µM
# [2] = Redox potential of the compound in pH 7.4 PBS buffer assessed as half wave potential at 0.4 mM by cyclic voltametry; type: physicochemical; settings: pH 7.4, 400 µM
# [3] = Redox potential of the compound in pH 7.4 PBS buffer assessed as reduction potential at 0.4 mM by cyclic voltametry; type: physicochemical; settings: pH 7.4, 400 µM
# [4] = Selectivity index, ratio of IC50 for human WI38 cells to IC50 for human HL60 cells; type: toxicity; settings: WI38 cells and HL60 cells, read-out: Ratio IC50
# K562 = assay: Antiproliferative activity against human K562 cells after 48 hrs by MTT assay; type: functional, cell-based; settings: K562, 48 h
# WI-38 = assay: Antiproliferative activity against human WI38 cells after 48 hrs by MTT assay; type: cell-based; settings: WI-38, 48 h
SMILES,IC50 (HL-60),IC50 (HeLa),IC50 (HepG2),IC50 (A549),IC50 (NCI-H460),Activity [1],Activity [2],Activity [3],selectivity ratio [4],IC50 (K562),IC50 (WI-38)
O=c1[nH]cc(F)c(=O)[nH]1 [FLUOROURACIL],67.2 µM,30.2 µM,36.6 µM,–,–,–,–,–,–,–,–
CCCCCCCCCCCCC1=C(O)C(=O)c2cc(OC)cc(OC)c2C1=O,86.7 µM,> 100 µM,> 100 µM,> 100 µM,> 100 µM,–,–,–,–,–,–
COc1cc(OC)c2c(c1)C(=O)C(O)=C(C)C2=O,> 100 µM,90.2 µM,> 100 µM,> 100 µM,> 100 µM,–,–,–,–,–,–
CCCCCCC1=C(O)C(=O)c2cc(OC)cc(OC)c2C1=O,> 100 µM,> 100 µM,90.4 µM,> 100 µM,> 100 µM,–,–,–,–,–,–
CCC1=C(O)C(=O)c2cc(OC)cc(OC)c2C1=O,> 100 µM,96.5 µM,> 100 µM,> 100 µM,> 100 µM,–,–,–,–,–,–
CCCCC1=C(OC)C(=O)c2cc(OC)cc(OC)c2C1=O,61.4 µM,52.4 µM,55.9 µM,> 100 µM,75.2 µM,-0.187 V,-0.249 V,-0.311 V,–,–,–
COc1cc(OC)c2c(c1)C(=O)C(O)=C(CCc1ccc(Br)cc1)C2=O,> 100 µM,> 100 µM,73.2 µM,> 100 µM,> 100 µM,–,–,–,–,–,–
CCCC1=C(O)C(=O)c2cc(OC)cc(OC)c2C1=O,> 100 µM,> 100 µM,> 100 µM,78.7 µM,> 100 µM,–,–,–,–,–,–
COC1=C(CCc2ccc(OC)cc2)C(=O)c2c(OC)cc(OC)cc2C1=O,52 µM,35 µM,47.5 µM,> 100 µM,37.1 µM,–,–,–,–,–,–
COc1cc(OC)c2c(c1)C(=O)C(O)=CC2=O,> 100 µM,> 100 µM,> 100 µM,> 100 µM,> 100 µM,–,–,–,–,–,–
COc1cc(OC)c2c(c1)C(=O)C(Cl)=C(CCC1CCCCC1)C2=O,9.2 µM,21.2 µM,41.4 µM,63 µM,61 µM,–,–,–,3.7,29.9 µM,34.2 µM
